Where two headings read alike, the source gives them in different places.
Columns and labels:
Format in all cases: in vivo
Waterhemp = test: Test C postemergence: waterhemp
Outline: (§1)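 Visual ratings of 0 (no effect) to 100 (complete control) were made against controls 13-15 days after a postemergence spray, with plants kept in a greenhouse. Plants were 2-18 cm tall (1- to 4-leaf stage) in Redi-Earth peat/vermiculite medium at treatment.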

[1] = tested on: johnsongrass (Sorghum halepense); test: Test C pre-/postemergence: johnsongrass
Outline: (§2)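 Visual injury scored 0–100 (100 = complete control) against untreated controls after 13–15 greenhouse days. Surfactant-containing solvent formulations applied either to soil after sowing (loam/sand) or over 1- to 4-leaf plants, 2–18 cm tall.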

[2] = tested on: foxtail, giant (giant foxtail, Setaria faberii); test: Test A pre-/postemergence: foxtail, giant; settings: for pest or weed control at 125 g/ha / pest or weed control at 500 g/ha: Setaria faberi, 240 h
Outline: (§3)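 Injury is scored visually on a scale where 0 means no effect and 100 complete control, comparing treated with untreated plants after approximately ten greenhouse days. Both preemergence and postemergence applications are made at the same time.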

[3] = tested on: galium (catchweed bedstraw, Galium aparine); test: Test C pre-/postemergence: galium
Outline: as §2

[4] = tested on: velvetleaf (Abutilon theophrasti); test: Test A pre-/postemergence: velvetleaf; settings: for pest or weed control at 125 g/ha / pest or weed control at 500 g/ha: Abutilon theophrasti, 240 h
Outline: as §3

[5] = tested on: blackgrass (Alopecurus myosuroides); test: Test C pre-/postemergence: blackgrass
Outline: as §2

[6] = tested on: morningglory (Ipomoea coccinea); test: Test C pre-/postemergence: morningglory
Outline: as §2

[7] = tested on: morningglory (Ipomoea spp.); test: Test A pre-/postemergence: morningglory; settings: for pest or weed control at 125 g/ha / pest or weed control at 500 g/ha: Ipomoea, 240 h
Outline: as §3

Oilseed Rape = test: Test C postemergence: oilseed rape
Outline: as §1

[8] = tested on: crabgrass, large (large crabgrass, Digitaria sanguinalis); test: Test A pre-/postemergence: crabgrass, large; settings: for pest or weed control at 125 g/ha / pest or weed control at 500 g/ha: Digitaria sanguinalis, 240 h
Outline: as §3

[9] = 31 g ai/ha, scale 0 to 100 (0 no effect, 100 complete control)
[10] = 62 g ai/ha, scale 0 to 100 (0 no effect, 100 complete control)
[11] = Postemergence, 31 g ai/ha, scale 0 to 100 (0 no effect, 100 complete control)
[12] = Postemergence, 62 g ai/ha, scale 0 to 100 (0 no effect, 100 complete control)
[13] = Postemergence, 125 g ai/ha, scale 0 to 100, 0 no effect, 100 complete control
[14] = Postemergence, 250 g ai/ha, scale 0 to 100
[15] = Preemergence, 31 g ai/ha, scale 0 (no effect) to 100 (complete control)
[16] = Preemergence, 62 g ai/ha, scale of 0 to 100, 0 is no effect, 100 is complete control
[17] = Preemergence, 125 g ai/ha, scale 0 to 100, 0 no effect, 100 complete control
[18] = Preemergence, 250 g ai/ha, scale 0 to 100, 0 no effect, 100 complete control
[19] = Postemergence, 16 g ai/ha, scale 0 to 100, 0 no effect, 100 complete control
[20] = Preemergence, 16 g ai/ha, scale 0 (no effect) to 100 (complete control)
[21] = Preemergence, 31 g ai/ha, scale of 0 to 100, 0 is no effect, 100 is complete control
[22] = Postemergence, 125 g ai/ha, 0 to 100 scale, 0 is no effect, 100 is complete control
[23] = Postemergence, 500 g ai/ha, visual rating on 0 to 100 scale (0 no effect, 100 complete control), approximately ten days
[24] = Preemergence, 125 g ai/ha, 0 to 100 scale where 0 is no effect and 100 is complete control
[25] = Preemergence, 500 g ai/ha, 0 to 100 scale (0 no effect, 100 complete control)

CCOc1nn(-c2ccc(C(F)(F)F)cc2)nc1Cc1ccnc(C(F)(F)F)c1 [Compound 164, 4-[[5-ethoxy-2-[4-(trifluoromethyl)phenyl]-2H-1,2,3-triazol-4-yl]methyl]-2-(trifluoromethyl)pyridine]
Plant response rating, Waterhemp (Waterhemp; [9]): 35
Plant response rating, Waterhemp (Waterhemp; [10]): 65
Plant response rating, Waterhemp (Waterhemp; 250 g ai/ha, scale 0 to 100): 75
Plant response rating, Johnsongrass [1, 11]: 10
Plant response rating, Johnsongrass [1, 12]: 10
Plant response rating, Johnsongrass [1, 13]: 10
Plant response rating, Johnsongrass [1, 14]: 10
Plant response rating, Johnsongrass [1, 15]: 5
Plant response rating, Johnsongrass [1, 16]: 15
Plant response rating, Johnsongrass [1, 17]: 20
Plant response rating, Johnsongrass [1, 18]: 40
pest or weed control at 125 g/ha ([2]; post-emergence, Postemergence, 125 g ai/ha, 0 to 100 scale, 0 is no effect, 100 is complete control, read-out: Plant response rating, Foxtail, Giant): 90%
pest or weed control at 500 g/ha ([2]; post-emergence, Postemergence, 500 g ai/ha, 0 to 100 scale, 0 is no effect, 100 is complete control, read-out: Foxtail, Giant plant response rating): 90%
pest or weed control at 125 g/ha ([2]; pre-emergence, Preemergence, 125 g ai/ha, 0 to 100 scale where 0 is no effect and 100 is complete control, read-out: Plant response rating, Foxtail, Giant): 100%
pest or weed control at 500 g/ha ([2]; pre-emergence, Preemergence, 500 g ai/ha, 0 to 100 scale (0 no effect, 100 complete control), read-out: Plant response rating, Foxtail, Giant): 100%
Plant response rating, Galium [3, 11]: 30
Plant response rating, Galium [3, 12]: 30
Plant response rating, Galium [3, 13]: 60
Plant response rating, Galium [3, 14]: 60
Plant response rating, Galium [3, 15]: 0
Plant response rating, Galium [3, 16]: 50
Plant response rating, Galium [3, 17]: 80
Plant response rating, Galium [3, 18]: 80
pest or weed control at 125 g/ha ([4]; post-emergence, Postemergence, 125 g ai/ha, 0 to 100 scale, 0 is no effect, 100 is complete control, read-out: Plant response rating, Velvetleaf): 100%
pest or weed control at 500 g/ha ([4]; post-emergence, Postemergence, 500 g ai/ha, 0 to 100 scale, 0 is no effect, 100 is complete control, read-out: Velvetleaf plant response rating): 100%
pest or weed control at 125 g/ha ([4]; pre-emergence, Preemergence, 125 g ai/ha, 0 to 100 scale where 0 is no effect and 100 is complete control, read-out: Plant response rating, Velvetleaf): 80%
pest or weed control at 500 g/ha ([4]; pre-emergence, Preemergence, 500 g ai/ha, 0 to 100 scale (0 no effect, 100 complete control), read-out: Plant response rating, Velvetleaf): 100%
Plant response rating, Blackgrass [5, 11]: 5
Plant response rating, Blackgrass [5, 12]: 5
Plant response rating, Blackgrass [5, 13]: 15
Plant response rating, Blackgrass [5, 14]: 15
Plant response rating, Blackgrass [5, 15]: 5
Plant response rating, Blackgrass [5, 16]: 10
Plant response rating, Blackgrass [5, 17]: 60
Plant response rating, Blackgrass [5, 18]: 70
Plant response rating, Morningglory [6, 11]: 50
Plant response rating, Morningglory [6, 12]: 60
Plant response rating, Morningglory [6, 14]: 75
Plant response rating, Morningglory [6, 15]: 5
Plant response rating, Morningglory [6, 16]: 15
Plant response rating, Morningglory [6, 17]: 25
Plant response rating, Morningglory [6, 18]: 45
pest or weed control at 125 g/ha ([7]; post-emergence, Postemergence, 125 g ai/ha, 0 to 100 scale, 0 is no effect, 100 is complete control, read-out: Plant response rating, Morningglory): 100%
pest or weed control at 500 g/ha ([7]; post-emergence, Postemergence, 500 g ai/ha, 0 to 100 scale, 0 is no effect, 100 is complete control, read-out: Morningglory plant response rating): 100%
pest or weed control at 125 g/ha ([7]; pre-emergence, Preemergence, 125 g ai/ha, 0 to 100 scale where 0 is no effect and 100 is complete control, read-out: Plant response rating, Morningglory): 80%
pest or weed control at 500 g/ha ([7]; pre-emergence, Preemergence, 500 g ai/ha, 0 to 100 scale (0 no effect, 100 complete control), read-out: Plant response rating, Morningglory): 90%
Plant response rating, Oilseed Rape (Oilseed Rape; [9]): 5
Plant response rating, Oilseed Rape (Oilseed Rape; [10]): 5
Plant response rating, Oilseed Rape (Oilseed Rape; 250 g ai/ha, scale 0 to 100): 25
pest or weed control at 125 g/ha ([8]; post-emergence, Postemergence, 125 g ai/ha, 0 to 100 scale, 0 is no effect, 100 is complete control, read-out: Plant response rating, Crabgrass, Large): 90%
pest or weed control at 500 g/ha ([8]; post-emergence, Postemergence, 500 g ai/ha, 0 to 100 scale, 0 is no effect, 100 is complete control, read-out: Crabgrass, Large plant response rating): 90%
pest or weed control at 125 g/ha ([8]; pre-emergence, Preemergence, 125 g ai/ha, 0 to 100 scale where 0 is no effect and 100 is complete control, read-out: Plant response rating, Crabgrass, Large): 100%
pest or weed control at 500 g/ha ([8]; pre-emergence, Preemergence, 500 g ai/ha, 0 to 100 scale (0 no effect, 100 complete control), read-out: Plant response rating, Crabgrass, Large): 100%

FCc1nn(-c2ccc(F)cc2)nc1Oc1ccnc(C(F)(F)F)c1 [Compound 160]
Plant response rating, Waterhemp (Waterhemp; [9]): 95
Plant response rating, Waterhemp (Waterhemp; [10]): 98
Plant response rating, Johnsongrass [1, 19]: 10
Plant response rating, Johnsongrass [1, 11]: 15
Plant response rating, Johnsongrass [1, 13]: 30
Plant response rating, Johnsongrass [1, 20]: 85
Plant response rating, Johnsongrass [1, 21]: 100
Plant response rating, Johnsongrass [1, 16]: 100
Plant response rating, Johnsongrass [1, 17]: 100
Plant response rating, Foxtail, Giant [2, 22]: 90
Foxtail, Giant plant response rating [2, 23]: 90
Plant response rating, Foxtail, Giant [2, 24]: 100
Plant response rating, Foxtail, Giant [2, 25]: 100
Plant response rating, Galium [3, 19]: 55
Plant response rating, Galium [3, 11]: 80
Plant response rating, Galium [3, 12]: 85
Plant response rating, Galium [3, 13]: 95
Plant response rating, Galium [3, 21]: 5
Plant response rating, Galium [3, 16]: 100
Plant response rating, Galium [3, 17]: 100
Plant response rating, Velvetleaf [4, 22]: 90
Velvetleaf plant response rating [4, 23]: 100
Plant response rating, Velvetleaf [4, 24]: 50
Plant response rating, Velvetleaf [4, 25]: 70
Plant response rating, Blackgrass [5, 19]: 25
Plant response rating, Blackgrass [5, 11]: 35
Plant response rating, Blackgrass [5, 12]: 45
Plant response rating, Blackgrass [5, 13]: 65
Plant response rating, Blackgrass [5, 20]: 0
Plant response rating, Blackgrass [5, 21]: 40
Plant response rating, Blackgrass [5, 16]: 90
Plant response rating, Blackgrass [5, 17]: 90
Plant response rating, Morningglory [6, 19]: 60
Plant response rating, Morningglory [6, 11]: 60
Plant response rating, Morningglory [6, 12]: 98
Plant response rating, Morningglory [6, 13]: 98
Plant response rating, Morningglory [6, 20]: 0
Plant response rating, Morningglory [6, 21]: 5
Plant response rating, Morningglory [6, 16]: 15
Plant response rating, Morningglory [6, 17]: 20
Plant response rating, Morningglory [7, 22]: 90
Morningglory plant response rating [7, 23]: 90
Plant response rating, Morningglory [7, 24]: 40
Plant response rating, Morningglory [7, 25]: 70
Plant response rating, Oilseed Rape (Oilseed Rape; [9]): 95
Plant response rating, Oilseed Rape (Oilseed Rape; [10]): 95
Plant response rating, Crabgrass, Large [8, 22]: 90
Crabgrass, Large plant response rating [8, 23]: 90
Plant response rating, Crabgrass, Large [8, 24]: 100
Plant response rating, Crabgrass, Large [8, 25]: 100

Source: patent US9302999B2, “Substituted triazoles as herbicides” (E. I. DU PONT DE NEMOURS AND COMPANY, priority 2012, dated 2016)
